Data as given in patent US12390456B2, “Pridopidine for treating Huntington's disease” (PRILENIA NEUROTHERAPEUTICS LTD., priority 2013, dated 2025).
Where two headings read alike, the source gives them in different places.

Experiments:
[1] = tested on: patients with HD; conditions: cited from earlier work
[2] = tested on: patients with HD
Method: Study ACR16C007 explored the efficacy of 44 mg pridopidine once daily (qd) in 58 patients.

[3] = tested on: patients with HD; conditions: 12 weeks; 67.5 mg, 90 mg and 112.5 mg bid
Method: The primary efficacy variable and endpoint for this study is change from baseline in the UHDRS-TMS (defined as the sum of all UHDRS motor domains ratings) at Week 12.
The change from baseline in TMS is analyzed using a Repeated Measures model (SAS® MIXED procedure with REPEATED sub-command). The model includes the following fixed effects: categorical week in trial by treatment interaction, center, neuroleptic use or no use and baseline TMS score. The unstructured covariance matrix for repeated observations within patients is used.

[4] = tested on: patients with HD; conditions: 26 weeks; 67.5 mg, 90 mg and 112.5 mg bid
From the text: The model includes the following fixed effects: categorical week in study by treatment interaction, center, neuroleptic use or no use, and baseline UHDRS-TMS score. The unstructured covariance matrix for repeated observations within patients is used.

[5] = tested on: patients with HD; conditions: 26 weeks; 67.5 mg, 90 mg and 112.5 mg bid; remark: listed apart in the source
From the text: The Modified Physical Performance Test (mPPT) is used instead of the Physical Performance Test (PPT). The Walk-12 scale in used instead of the Multiple Sclerosis Walking Scale (MSWS).

Row | SMILES | effect on motor components other than chorea ([1]; in vivo) | improvement on the UHDRS-TMS ([1]; p=0.075, 45 to 47 points at baseline) [points] | effect on mMS ([2]; 45 mg bid, HART and MermaiHD) | improvement in UHDRS-TMS relative to placebo ([2]; 45 mg bid, MermaiHD and HART) | findings on the TMS ([2]; HART and MermaiHD) | efficacy in treating motor symptoms in HD (mMS and TMS) ([2]; HART study, 10, 22.5 and 45 mg bid, 12 weeks) | changes from baseline in TMS [3] | changes from baseline in UHDRS-TMS [4] | changes from baseline in UHDRS-TMS [5]
1 | COc1cc2c(cc1OC)C1CC(=O)C(CC(C)C)CN1CC2 (stereo not drawn) [tetrabenazine] | no significant effect | 3.3 | – | – | – | – | – | – | –
2 | CCCN1CCC(c2cccc(S(C)(=O)=O)c2)CC1 [pridopidine, 4-[3-(methylsulfonyl)phenyl]-1-propyl-piperidine] | – | – | did not reach the pre-specified significance criteria | approximately 3 points | statistically significant findings | dose-dependent efficacy | Statistically significant changes | Statistically significant changes | Statistically significant changes
